Paper PMC8634379, “From the Design to the In Vivo Evaluation of Benzohomoadamantane-Derived Soluble Epoxide Hydrolase Inhibitors for the Treatment of Acute Pancreatitis” (Journal of Medicinal Chemistry, 2021)
Converted amounts (≈) assume the structure as drawn.

Assays:
[1] = Microsomal stability; type: in vitro ADME, mice; conditions: after 60 min incubation, NADP, 37 °C
Method: (§1) The human, rat, and mice recombinant microsomes employed were purchased from Tebu–Xenotech. […] Samples (75 μL) were taken from each well at 0, 10, 20, 40, and 60 min and transferred to a plate containing 4 °C 75 μL of acetonitrile and 30 μL of 0.5% formic acid in water were added for improving the chromatographic conditions. The plate was centrifuged ([…], 30 min) and supernatants were taken and analyzed by an ultraperformance liquid chromatograph–tandem mass spectrometer (Xevo-TQD, Waters) by employing a BEH C18 column and an isocratic gradient of 0.1% formic acid in water: 0.1% formic acid acetonitrile (60:40). The metabolic stability of the compounds was calculated from the logarithm of the remaining compounds at each of the time points studied.

[2] = Microsomal stability; conditions: after 60 min incubation, NADP, 37 °C
Method: as §1

[3] = Solubility in 1% DMSO: 99% PBS (nephelometry); type: physicochemical; conditions: PBS with 1% DMSO, 1% DMSO: 99% PBS buffer solution, 37 °C
Method: A 10 mM stock solution of the compound was serially diluted in 100% DMSO and 1 μL of this solution was added to a 384-well UV-transparent plate (Greiner) containing 99 μL of PBS. The plate was incubated at 37 °C for 2 h and the light scattering was measured in a Nephelostar Plus reader (BMG LABTECH). The data were fitted to a segmented linear regression for measuring the compound solubility.

[4] = test system: SH-SY5Y cells; experiment: Cytotoxicity by propidium iodide staining; type: cell-based; conditions: 100 μM, 24 h
Method: Cytotoxicity was evaluated in the human neuroblastoma SH-SY5Y cell line (ATCC number: CRL-2266). Cells were cultured in minimum essential medium/Ham’s-F12 (1:1, v/v) medium, supplemented with non-essential amino acids, 10% fetal bovine serum, 1 mM glutamine, and 50 μg/mL gentamycin (all reagents from Gibco, Invitrogen). For experiments, the cells were seeded at 3 × 10^5 cells/mL (100 μL/well) in 96-well plates (Nunc). After 24 h, the testing compounds were added concentrated to triplicate wells to obtain the final different concentrations up to 100 μM. Compounds were incubated for further 24 h. At termination, cytotoxicity was analyzed by the propidium iodide (PI) fluorescence stain assay. All compounds were tested in three independent experiments using different cell passages. The PI assay measures cell death. […]. The percentage of cell death induced by the treatments was calculated from the fluorescence of treated cells (Ft) relative to that of control cells (Fmin) and cells incubated with Triton X100 (Fmax) as the 0 and 100% cell death, respectively [% = ((Ft – Fmin)/(Fmax – Fmin)) × 100].

[5] = biological target: T1, human LOX-5 (hLOX-5) (Homo sapiens, UniProt P09917); experiment: Inhibition of hLOX-5; type: biochemical
T1 construct: purchased Cayman Chemical
T1 sequence (P09917 1-674): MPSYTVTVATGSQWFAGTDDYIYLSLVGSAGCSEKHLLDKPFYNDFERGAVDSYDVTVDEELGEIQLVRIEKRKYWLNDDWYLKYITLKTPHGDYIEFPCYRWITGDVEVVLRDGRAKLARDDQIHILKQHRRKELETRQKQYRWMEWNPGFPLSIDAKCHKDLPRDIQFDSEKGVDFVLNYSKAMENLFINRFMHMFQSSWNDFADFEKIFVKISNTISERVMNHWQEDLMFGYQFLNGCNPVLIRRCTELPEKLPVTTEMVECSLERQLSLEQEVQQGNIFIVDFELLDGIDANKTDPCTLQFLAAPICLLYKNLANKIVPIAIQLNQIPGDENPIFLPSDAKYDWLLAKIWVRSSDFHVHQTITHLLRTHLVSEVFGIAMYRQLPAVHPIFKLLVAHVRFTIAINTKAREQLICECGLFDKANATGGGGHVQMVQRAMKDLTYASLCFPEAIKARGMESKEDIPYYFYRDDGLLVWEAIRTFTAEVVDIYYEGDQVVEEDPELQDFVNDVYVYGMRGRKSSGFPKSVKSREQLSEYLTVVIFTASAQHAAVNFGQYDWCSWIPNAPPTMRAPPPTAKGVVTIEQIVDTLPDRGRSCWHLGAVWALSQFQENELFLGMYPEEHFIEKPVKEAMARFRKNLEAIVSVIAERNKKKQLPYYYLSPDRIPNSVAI
Method: AA and 2′,7′-dichlorodihydrofluorescein diacetate (H2DCFDA) were obtained from Sigma. Human recombinant LOX-5 was purchased from Cayman Chemical. For the determination of hLOX-5 activity, the method described by Pufahl et al. was followed.[51] The assay solution consisted of 50 mM Tris (pH 7.5), 2 mM EDTA, 2 mM CaCl2, 3 μM AA, 10 μM ATP, 10 μM H2DCFDA, and 100 mU/well hLOX-5. For the enzyme inhibition studies, the compounds to be tested were added to the assay solution prior to AA and ATP and were preincubated for a period of 10 min at room temperature, after which AA and ATP were added. The enzymatic reaction was carried out for 20 min and terminated by the addition of 40 μL of acetonitrile.

[6] = biological target: T2, human COX-2 (hCOX-2) (Homo sapiens, UniProt P35354); experiment: Inhibition of hCOX-2 (Eurofins, catalogue reference 4186); type: biochemical; conditions: for IC50: performed by Eurofins
T2 sequence (P35354 18-604): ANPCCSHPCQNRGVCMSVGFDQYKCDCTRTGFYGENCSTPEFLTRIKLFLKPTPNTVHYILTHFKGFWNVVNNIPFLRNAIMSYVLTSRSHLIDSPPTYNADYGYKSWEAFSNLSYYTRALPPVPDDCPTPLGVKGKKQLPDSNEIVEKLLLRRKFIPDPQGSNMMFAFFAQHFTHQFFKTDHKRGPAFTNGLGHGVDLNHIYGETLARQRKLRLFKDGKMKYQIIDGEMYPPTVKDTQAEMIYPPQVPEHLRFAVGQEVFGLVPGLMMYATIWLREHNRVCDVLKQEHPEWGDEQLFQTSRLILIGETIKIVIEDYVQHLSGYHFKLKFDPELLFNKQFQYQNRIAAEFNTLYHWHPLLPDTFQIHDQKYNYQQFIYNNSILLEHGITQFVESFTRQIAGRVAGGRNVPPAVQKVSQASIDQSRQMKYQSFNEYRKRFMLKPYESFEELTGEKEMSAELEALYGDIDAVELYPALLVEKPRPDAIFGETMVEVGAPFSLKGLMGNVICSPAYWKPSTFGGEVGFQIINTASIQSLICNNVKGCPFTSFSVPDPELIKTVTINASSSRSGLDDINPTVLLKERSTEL

microsomal stability, percentage of remaining compound (mice) [1] [%]	microsomal stability, percentage of remaining compound (rat) [2] [%]	solubility at 2 h [3] [µM]	IC50 [5] [µM]	IC50 [6] [µM]	SMILES	cytotoxicity at the highest concentration tested [4]	inhibition of hLOX-5 (selectivity) [5]	inhibition of hCOX-2 (selectivity) [6]
10	2	4 (≈ 1.95 µg/mL)	> 100	> 10	CC12CC3CC(NC(=O)N[C@H]4CC[C@H](Oc5ccc(C(=O)O)cc5)CC4)(CC(C1)c1ccccc13)C2 [Compound 20, 4-[((1r,4r)-4-(3-(9-Methyl-5,6,8,9,10,11-Hexahydro-7H-5,9:7,11-dimethanobenzo[9]annulen-7-yl)ureido)cyclohexyl)oxy]benzoic Acid]	None of the compounds showed to be cytotoxic	Neither 20 nor the halogenated analogues 22 and 23 significantly inhibited	Neither 20 nor the halogenated analogues 22 and 23 significantly inhibited
36	60	7 (≈ 3.45 µg/mL)	> 100	> 10	O=C(NC12CC3CC(F)(CC(C1)c1ccccc13)C2)N[C@H]1CC[C@H](Oc2ccc(C(=O)O)cc2)CC1 [Compound 23, 4-[((1r,4r)-4-(3-(9-Fluoro-5,6,8,9,10,11-hexahydro-7H-5,9:7,11-dimethanobenzo[9]annulen-7-yl)ureido)cyclohexyl)oxy]benzoic Acid]	None of the compounds showed to be cytotoxic	Neither 20 nor the halogenated analogues 22 and 23 significantly inhibited	Neither 20 nor the halogenated analogues 22 and 23 significantly inhibited

SMILES	microsomal stability, percentage of remaining compound (mice) [1] [%]	microsomal stability, percentage of remaining compound (rat) [2] [%]	solubility at 2 h [3] [µM]	IC50 [5] [µM]	IC50 [6] [µM]	cytotoxicity at the highest concentration tested [4]	inhibition of hLOX-5 (selectivity) [5]	inhibition of hCOX-2 (selectivity) [6]
O=C(NC12CC3CC(Cl)(CC(C1)c1ccccc13)C2)N[C@H]1CC[C@H](Oc2ccc(C(=O)O)cc2)CC1 [Compound 22, 4-[((1r,4r)-4-(3-(9-Chloro-5,6,8,9,10,11-hexahydro-7H-5,9:7,11-dimethanobenzo[9]annulen-7-yl)ureido)cyclohexyl)oxy]benzoic Acid]	29	52	13 (≈ 6.62 µg/mL)	> 100	> 10	None of the compounds showed to be cytotoxic	–	–
